Data: patent US8471005B2 (Cephalon, Inc., priority 2008, dated 2013)
Where two headings read alike, the source gives them in different places.

Assays:
ALK = target: T1, ALK (Homo sapiens, UniProt Q9UM73); assay: ALK Kinase Assay (ELISA/TRF, PLC-γ substrate); assay type: biochemical; settings: read-out: ALK Potency
T1 construct: host or cells: baculovirus expression system
Outline: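 IC50 values derive from percent inhibition plotted against log10 compound concentration and fitted to a variable-slope sigmoidal equation. The underlying reaction used 30 ng/ml ALK acting on immobilized PLC-γ (10 μg/mL in TBS) at 37° C for 15 minutes, read with Eu-N1 PT66 antibody.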

JAK2 = target: T2, JAK2 (Homo sapiens, UniProt O60674); assay: Recombinant Human JAK2 Kinase Assay (TRF); assay type: biochemical; settings: read-out: JAK2 Potency
T2 construct: host or cells: baculovirus expression system
Outline: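 Baculovirus-expressed JAK2 (15 ng/ml) phosphorylated a biotinylated 15-mer peptide captured on Neutravidin, in 20 mM HEPES pH 7.2, 0.2 μM ATP, 1 mM MnCl2, 0.1% BSA, 2.5% DMSO final, 20 min at room temperature. Phosphoproduct detected by time-resolved fluorescence with Eu-N1-labelled PY100 antibody.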

[1] = ALK kinase inhibition, 1 μM ATP
[2] = JAK2 kinase inhibition, 0.2 μM ATP

T1 sequence (Q9UM73 19-1620): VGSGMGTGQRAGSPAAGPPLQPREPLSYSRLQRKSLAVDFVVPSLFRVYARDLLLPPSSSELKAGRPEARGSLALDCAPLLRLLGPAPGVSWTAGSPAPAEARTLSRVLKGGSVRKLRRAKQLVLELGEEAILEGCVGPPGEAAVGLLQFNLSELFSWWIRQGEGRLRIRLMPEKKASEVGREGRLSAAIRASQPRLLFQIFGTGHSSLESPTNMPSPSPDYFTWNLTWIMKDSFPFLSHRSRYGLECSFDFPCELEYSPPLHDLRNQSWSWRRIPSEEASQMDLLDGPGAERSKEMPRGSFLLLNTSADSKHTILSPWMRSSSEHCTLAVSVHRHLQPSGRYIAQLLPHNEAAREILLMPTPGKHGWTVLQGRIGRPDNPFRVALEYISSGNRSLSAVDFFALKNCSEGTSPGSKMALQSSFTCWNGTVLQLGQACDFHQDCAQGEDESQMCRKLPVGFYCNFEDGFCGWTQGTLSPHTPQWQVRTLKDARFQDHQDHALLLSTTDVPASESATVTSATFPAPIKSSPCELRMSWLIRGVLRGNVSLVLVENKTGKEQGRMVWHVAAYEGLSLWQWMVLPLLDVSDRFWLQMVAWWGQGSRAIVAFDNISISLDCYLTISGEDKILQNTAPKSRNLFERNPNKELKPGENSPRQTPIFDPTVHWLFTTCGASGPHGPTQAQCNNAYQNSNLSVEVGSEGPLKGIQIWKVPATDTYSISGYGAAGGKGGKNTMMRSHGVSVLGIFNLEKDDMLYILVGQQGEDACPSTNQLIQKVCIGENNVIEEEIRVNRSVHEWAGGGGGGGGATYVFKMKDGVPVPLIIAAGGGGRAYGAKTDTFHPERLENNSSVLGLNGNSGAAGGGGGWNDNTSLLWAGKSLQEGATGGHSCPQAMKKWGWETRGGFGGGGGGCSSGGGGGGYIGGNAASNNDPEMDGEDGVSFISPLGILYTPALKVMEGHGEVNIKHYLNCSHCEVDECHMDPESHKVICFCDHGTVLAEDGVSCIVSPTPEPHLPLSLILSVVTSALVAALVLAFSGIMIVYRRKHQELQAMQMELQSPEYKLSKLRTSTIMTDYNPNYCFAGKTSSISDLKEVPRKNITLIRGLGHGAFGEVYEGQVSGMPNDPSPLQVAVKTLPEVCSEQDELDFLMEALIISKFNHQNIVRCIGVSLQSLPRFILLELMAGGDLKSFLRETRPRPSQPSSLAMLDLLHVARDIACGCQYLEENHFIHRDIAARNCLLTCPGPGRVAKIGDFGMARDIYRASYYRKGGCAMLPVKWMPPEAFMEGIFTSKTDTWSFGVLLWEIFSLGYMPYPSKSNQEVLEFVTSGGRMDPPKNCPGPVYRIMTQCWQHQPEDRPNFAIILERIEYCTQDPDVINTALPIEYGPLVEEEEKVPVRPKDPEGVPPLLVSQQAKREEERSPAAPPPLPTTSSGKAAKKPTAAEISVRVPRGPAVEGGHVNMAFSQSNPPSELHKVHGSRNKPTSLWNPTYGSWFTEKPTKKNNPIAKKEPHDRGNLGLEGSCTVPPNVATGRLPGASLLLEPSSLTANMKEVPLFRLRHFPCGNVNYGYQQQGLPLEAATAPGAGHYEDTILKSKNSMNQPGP
T2 sequence (O60674 whole entry): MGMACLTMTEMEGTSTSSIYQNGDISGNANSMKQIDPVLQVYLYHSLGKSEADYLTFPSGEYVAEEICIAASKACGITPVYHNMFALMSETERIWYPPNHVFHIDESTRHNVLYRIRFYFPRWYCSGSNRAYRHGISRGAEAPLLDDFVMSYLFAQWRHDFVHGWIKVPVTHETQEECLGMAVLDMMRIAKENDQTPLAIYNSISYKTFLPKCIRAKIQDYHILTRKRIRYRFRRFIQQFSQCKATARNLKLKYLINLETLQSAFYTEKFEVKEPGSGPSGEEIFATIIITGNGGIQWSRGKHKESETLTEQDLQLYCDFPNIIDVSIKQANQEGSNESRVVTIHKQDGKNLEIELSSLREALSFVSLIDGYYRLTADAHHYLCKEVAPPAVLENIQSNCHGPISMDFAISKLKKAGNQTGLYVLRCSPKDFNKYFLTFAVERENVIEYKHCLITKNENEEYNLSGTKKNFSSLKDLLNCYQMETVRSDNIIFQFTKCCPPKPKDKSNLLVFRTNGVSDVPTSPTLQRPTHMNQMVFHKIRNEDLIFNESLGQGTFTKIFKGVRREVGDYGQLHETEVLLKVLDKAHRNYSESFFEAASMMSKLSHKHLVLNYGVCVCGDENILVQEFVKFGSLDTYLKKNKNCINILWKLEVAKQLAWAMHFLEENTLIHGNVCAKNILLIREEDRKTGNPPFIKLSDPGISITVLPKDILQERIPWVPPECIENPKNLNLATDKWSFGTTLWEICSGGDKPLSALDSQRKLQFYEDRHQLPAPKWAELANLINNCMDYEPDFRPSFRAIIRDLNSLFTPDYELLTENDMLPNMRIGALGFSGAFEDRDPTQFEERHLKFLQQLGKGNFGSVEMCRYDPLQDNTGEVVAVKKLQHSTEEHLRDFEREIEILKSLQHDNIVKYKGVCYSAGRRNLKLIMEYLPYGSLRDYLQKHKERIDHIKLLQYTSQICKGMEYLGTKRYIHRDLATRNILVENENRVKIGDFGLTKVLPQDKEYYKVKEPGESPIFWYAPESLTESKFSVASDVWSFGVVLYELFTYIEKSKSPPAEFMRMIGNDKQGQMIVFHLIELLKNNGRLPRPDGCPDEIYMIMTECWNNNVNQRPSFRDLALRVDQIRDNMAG

Row | Compound | IC50 (ALK; ALK Kinase Inhibition) [nM] | IC50 (JAK2; JAK2 Kinase Inhibition) [nM] | IC50 (ALK; [1]) [nM] | IC50 (JAK2; [2]) [nM]
1 | COc1ccccc1-c1ccc2cnc(Nc3ccc(N4CCN(CC(N)=O)CC4)c(F)c3)nn12 [Example 1416, 2-(4-{2-Fluoro-4-[7-(2-methoxy-phenyl)-pyrrolo[2,1-f][1,2,4]triazin-2-ylamino]-phenyl}-piperazin-1-yl)-acetamide] | 100 to 1000 | < 100 | – | –
2 | COc1ccccc1-c1ccc2cnc(Nc3ccc4c(c3)CCN(CC(N)=O)C4)nn12 [Example 917, 2-{6-[7-(2-Methoxy-phenyl)-pyrrolo[2,1-f][1,2,4]triazin-2-ylamino]-3,4-dihydro-1H-isoquinolin-2-yl}-acetamide] | – | – | 100 to 1000 | < 100
3 | 1-[7-(2-Methoxy-phenyl)-pyrrolo[2,1-f][1,2,4]triazin-2-yl]-1H-imidazo[4,5-c]pyridine [Example 322] | 1000 to 10000 | 100 to 1000 | – | –
4 | CS(=O)(=O)c1cccc(-c2ccc3cnc(Nc4ccc5[nH]c(CN6CCN(CCO)CC6)nc5c4)nn23)c1 [Example 1539, 2-(4-{5-[7-(3-Methanesulfonyl-phenyl)-pyrrolo[2,1-f][1,2,4]triazin-2-ylamino]-1H-benzimidazol-2-ylmethyl}-piperazin-1-yl)-ethanol] | 1000 to 10000 | < 100 | – | –
5 | 7-(2-methoxy-phenyl)-pyrrolo(2,1-f)(1,2,4)triazin-2-yl-6-amino-1′-methyl-spiro(2H-1-benzopyran-2,4′-piperidine) [Example 377] | < 100 | < 100 | – | –
6 | COc1ccccc1-c1ccc2cnc(Nc3ccc(OCCN4CCN(C)CC4)cc3)nn12 [Example 94, [7-(2-Methoxy-phenyl)-pyrrolo[2,1-f][1,2,4]triazin-2-yl]-{4-[2-(4-methyl-piperazin-1-yl)-ethoxy]-phenyl}-amine] | < 100 | < 100 | – | –
7 | COC(=O)c1cccc(-c2ccc3cnc(Nc4ccc(N5CCOCC5)cc4)nn23)c1 [Example 6, 3-[2-(4-Morpholin-4-yl-phenylamino)-pyrrolo[2,1-f][1,2,4]triazin-7-yl]-benzoic acid methyl ester] | > 10000 | < 100 | – | –
8 | COc1cc(C2CCN(C(=O)CN(C)C)CC2)ccc1Nc1ncc2ccc(-c3ccccc3N(C)S(C)(=O)=O)n2n1 [Example 813, N-[2-(2-{4-[1-(2-Dimethylamino-acetyl)-piperidin-4-yl]-2-methoxy-phenylamino}-pyrrolo[2,1-f][1,2,4]triazin-7-yl)-phenyl]-N-methyl-methanesulfonamide] | – | – | < 100 | 1000 to 10000
9 | CC(=O)N1CC(C)(C)c2ccc(Nc3ncc4ccc(-c5cccc(S(=O)(=O)NC(C)(C)C)c5)n4n3)cc21 [Example 1388, 3-[2-(1-Acetyl-3,3-dimethyl-2,3-dihydro-1H-indol-6-ylamino)-pyrrolo[2,1-f][1,2,4]triazin-7-yl]-N-tert-butyl-benzenesulfonamide] | 100 to 1000 | < 100 | – | –
10 | COc1ccccc1-c1ccc2cnc(Nc3ccc(C4CCN(C(=O)N5CCN(C)CC5)CC4)cc3)nn12 [Example 501, (4-{4-[7-(2-Methoxy-phenyl)-pyrrolo[2,1-f][1,2,4]triazin-2-ylamino]-phenyl}-piperidin-1-yl)-(4-methyl-piperazin-1-yl)-methanone] | – | – | < 100 | < 100
11 | CN1CCN(c2ccc(Nc3ncc4ccc(-c5cccc(S(=O)(=O)NCCO)c5)n4n3)cc2)CC1 [Example 369, N-(2-Hydroxy-ethyl)-3-{2-[4-(4-methyl-piperazin-1-yl)-phenylamino]-pyrrolo[2,1-f][1,2,4]triazin-7-yl}-benzenesulfonamide] | 100 to 1000 | < 100 | – | –
12 | FC1(F)Oc2cccc(-c3ccc4cnc(Nc5ccc6c(c5)CCC(N5CCOCC5)CC6)nn34)c2O1 (stereo not shown) [Example 1535, [7-(2,2-Difluoro-benzo[1,3]dioxol-4-yl)-pyrrolo[2,1-f][1,2,4]triazin-2-yl]-(7-morpholin-4-yl-6,7,8,9-tetrahydro-5H-benzocyclohepten-2-yl)-amine] | 1000 to 10000 | < 100 | – | –
13 | COc1cc(N2CCN(C[C@H](C)O)CC2)ccc1Nc1ncc2ccc(-c3ccccc3S(C)(=O)=O)n2n1 [Example 541, (S)-1-(4-{4-[7-(2-Methanesulfonyl-phenyl)-pyrrolo[2,1-f][1,2,4]triazin-2-ylamino]-3-methoxy-phenyl}-piperazin-1-yl)-propan-2-ol] | – | – | 100 to 1000 | 1000 to 10000
14 | COc1cc(C2CCN(CC(N)=O)C2)ccc1Nc1ncc2ccc(-c3ccccc3OC)n2n1 (racemic) [Example 836, (±)-2-(3-{3-Methoxy-4-[7-(2-methoxy-phenyl)-pyrrolo[2,1-f][1,2,4]triazin-2-ylamino]-phenyl}-pyrrolidin-1-yl)-acetamide] | – | – | < 100 | < 100
15 | COc1cc(N2CCC(CN3CCN(C)CC3)CC2)ccc1Nc1ncc2ccc(-c3ccccc3N(C)S(C)(=O)=O)n2n1 [Example 467, N-[2-(2-{2-Methoxy-4-[4-(4-methyl-piperazin-1-ylmethyl)-piperidin-1-yl]-phenylamino}-pyrrolo[2,1-f][1,2,4]triazin-7-yl)-phenyl]-N-methyl-methanesulfonamide] | < 100 | 100 to 1000 | – | –
16 | N-{2-[2-(1-Methyl-2-oxo-2,3,4,5-tetrahydro-1H-benzo[b]azepin-7-ylamino)pyrrolo[2,1-f][1,2,4]triazin-7-yl]-phenyl}methanesulfonamide [Example 625] | – | – | 100 to 1000 | < 100
17 | COc1ccccc1-c1ccc2cnc(Nc3ccc4c(c3)CCC(N3CCOCC3)CC4)nn12 (stereo not shown) [Example 614, [7-(2-methoxy-phenyl)-pyrrolo[2,1-f][1,2,4]triazin-2-yl]-(7-morpholin-4-yl-6,7,8,9-tetrahydro-5H-benzocyclohepten-2-yl)amine] | – | – | < 100 | < 100
18 | Cn1ccc(-c2ccc3cnc(Nc4ccc(C5CCN(CC(N)=O)CC5)cc4)nn23)n1 [Example 955] | – | – | 100 to 1000 | < 100
19 | COc1cc(Nc2ncc3ccc(-c4cccc(Cl)c4)n3n2)cc(OC)c1 [Example 156, [7-(3-Chloro-phenyl)-pyrrolo[2,1-f][1,2,4]triazin-2-yl]-(3,5-dimethoxy-phenyl)-amine] | > 10000 | < 100 | – | –
20 | COc1cc(N2CCC(N3CCOCC3)CC2)ccc1Nc1ncc2ccc(-c3cccc4cccnc34)n2n1 [Example 512, [2-Methoxy-4-(4-morpholin-4-yl-piperidin-1-yl)-phenyl]-(7-quinolin-8-yl-pyrrolo[2,1-f][1,2,4]triazin-2-yl)-amine] | – | – | 100 to 1000 | 1000 to 10000
21 | CCCS(=O)(=O)Nc1cccc(-c2ccc3cnc(Nc4ccc(N5CCOCC5)cc4)nn23)c1 [Example 418, Propane-1-sulfonic acid {3-[2-(4-morpholin-4-yl-phenylamino)-pyrrolo[2,1-f][1,2,4]triazin-7-yl]-phenyl}-amide] | 100 to 1000 | < 100 | – | –
22 | CN1CCC(c2ccc(Nc3ncc4ccc(-c5cccc(S(=O)(=O)N6CCCC6)c5)n4n3)cc2)CC1 [Example 903, [4-(1-Methyl-piperidin-4-yl)-phenyl]-{7-[3-(pyrrolidine-1-sulfonyl)-phenyl]-pyrrolo[2,1-f][1,2,4]triazin-2-yl}-amine] | – | – | 100 to 1000 | < 100
23 | CC(C)(C)NS(=O)(=O)c1cccc(-c2ccc3cnc(Nc4cccc(-n5cnnc5)c4)nn23)c1 [Example 1391, N-tert-Butyl-3-[2-(3-[1,2,4]triazol-4-yl-phenylamino)-pyrrolo[2,1-f][1,2,4]triazin-7-yl]-benzenesulfonamide] | 100 to 1000 | < 100 | – | –
24 | COc1cc(N2CCC(N3CCOCC3)C2)ccc1Nc1ncc2ccc(-c3ccccc3OC)n2n1 (racemic) [Example 779, (±)-[2-Methoxy-4-(3-morpholin-4-yl-pyrrolidin-1-yl)-phenyl]-[7-(2-methoxyphenyl)-pyrrolo[2,1-f][1,2,4]triazin-2-yl]-amine] | – | – | 100 to 1000 | 100 to 1000
25 | CN1CCN(c2ccc(Nc3ncc4ccc(-c5cccnc5Cl)n4n3)cc2)CC1 [Example 1036, [7-(2-Chloro-pyridin-3-yl)-pyrrolo[2,1-f][1,2,4]triazin-2-yl]-[4-(4-methyl-piperazin-1-yl)-phenyl]-amine] | – | – | 100 to 1000 | < 100
26 | CC(C)(C)NS(=O)(=O)c1cccc(-c2ccc3cnc(Nc4ccc5c(c4)C(N)C(O)C5)nn23)c1 (stereo not shown) [Example 680, 3-[2-(3-Amino-2-hydroxy-indan-5-ylamino)-pyrrolo[2,1-f][1,2,4]triazin-7-yl]-N-tert-butyl-benzenesulfonamide] | – | – | 100 to 1000 | < 100
27 | COc1cc(N2CCC(N3CCCN(C)CC3)CC2)ccc1Nc1ncc2ccc(-c3ccccc3OC)n2n1 [Example 781, {2-Methoxy-4-[4-(4-methyl-[1,4]diazepan-1-yl)-piperidin-1-yl]-phenyl}-[7-(2-methoxy-phenyl)-pyrrolo[2,1-f][1,2,4]triazin-2-yl]-amine] | – | – | < 100 | < 100
28 | COc1cc(C2(NC(=O)C(F)(F)F)CCC2)ccc1Nc1ncc2ccc(-c3ccccc3N(C)S(C)(=O)=O)n2n1 [Example 1254, 2,2,2-Trifluoro-N-[1-(4-{7-[2-(methanesulfonyl-methyl-amino)-phenyl]-pyrrolo[2,1-f][1,2,4]triazin-2-ylamino}-3-methoxy-phenyl)-cyclobutyl]-acetamide] | – | – | 100 to 1000 | 1000 to 10000
29 | CNS(=O)(=O)c1cccc(-c2ccc3cnc(Nc4ccc(N5CCOCC5)cc4)nn23)c1 [Example 357, N-Methyl-3-[2-(4-morpholin-4-yl-phenylamino)-pyrrolo[2,1-f][1,2,4]triazin-7-yl]-benzenesulfonamide] | 100 to 1000 | < 100 | – | –
